According to US20230192700A1, “PYRAZOLOPYRAZINES ACTING ON CANCERS VIA INHIBITION OF CDK12” (Bayer Aktiengesellschaft, priority 2020, published 2023):

Biological target: T1, CDK2/CyclinE (Homo sapiens, UniProt P24941)
T1 construct: GST; purchased ProQinase GmbH (Freiburg, Germany); host or cells: insect cells (Sf9)
Assay: CDK2/CycE kinase assay (TR-FRET)
Assay type: biochemical
Details: 2 mM ATP (high ATP); median; read-out: CDK2/CyclinE, 2 mM ATP (high ATP) IC50 - [mol/l] (median)
Source text: 2.4 CDK2/CycE Kinase Assay
CDK2/CycE-inhibitory activity of compounds of the present invention was quantified employing the CDK2/CycE TR-FRET assay as described in the following paragraphs.
Recombinant fusion proteins of GST and human CDK2 and of GST and human CycE, expressed in insect cells (Sf9) and purified by Glutathion-Sepharose affinity chromatography, were purchased from ProQinase GmbH (Freiburg, Germany). As substrate for the kinase reaction biotinylated peptide biotin-Ttds-YISPLKSPYKISEG (C-terminus in amid form) was used which can be purchased e.g. form the company JERINI peptide technologies (Berlin, Germany).
For the assay 50 nanoL of a 100 fold concentrated solution of the test compound in DMSO was pipetted into a black low volume 384 well microtiter plate or a black 1536 well microtiter plate (both Greiner Bio-One, Frickenhausen, Germany), 2 microL of a solution of CDK2/CycE in aqueous assay buffer [50 millimol/L Tris/HCl pH 8.0, 10 millimol/L MgCl2, 1.0 millimol/L dithiothreitol, 0.1 millimol/L sodium ortho-vanadate, 0.01% (v/v) Nonidet-P40 (Sigma)] were added and the mixture was incubated for 15 min at 22° C. to allow pre-binding of the test compounds to the enzyme before the start of the kinase reaction. Then the kinase reaction was started by the addition of 3 microL of a solution of adenosine-tri-phosphate (ATP, 3.33 millimol/L=>final conc. in the 5 microL assay volume is 2 millimol/L) and substrate (1.25 micromol/L=>final conc. in the 5 microL assay volume is 0.75 micromol/L) in assay buffer and the resulting mixture was incubated for a reaction time of 25 min at 22° C. The concentration of CDK2/CycE was adjusted depending of the activity of the enzyme lot and was chosen appropriate to have the assay in the linear range, typical concentrations were in the range of 10 ng/mL. The reaction was stopped by the addition of 3 microL of a solution of TR-FRET detection reagents (0.333 micromol/L streptavidine-XL665 [Cisbio Bioassays, Codolet, France] and 1.67 nanomol/L anti-RB(pSer807/pSer811)-antibody from BD Pharmingen [#558389] and 2 nanomol/L LANCE EU-W1024 labeled anti-mouse IgG antibody [Perkin-Elmer, product no. AD0077, as an alternative a Terbium-cryptate-labeled anti-mouse IgG antibody from Cisbio Bioassays can be used]) in an aqueous EDTA-solution (167 millimol/L EDTA, 0.2% (w/v) bovine serum albumin in 100 millimol/L HEPES pH 7.5).
The resulting mixture was incubated 1 h at 22° C. to allow the formation of complex between the phosphorylated biotinylated peptide and the detection reagents. Subsequently the amount of phosphorylated substrate was evaluated by measurement of the resonance energy transfer from the Eu-chelate to the streptavidine-XL. Therefore, the fluorescence emissions at 620 nm and 665 nm after excitation at 350 nm was measured in a TR-FRET reader, e.g. a Pherastar (BMG Labtechnologies, Offenburg, Germany) or a Viewlux (Perkin-Elmer). The ratio of the emissions at 665 nm and at […] was taken as the measure for the amount of phosphorylated substrate. The data were normalised (enzyme reaction without inhibitor=0% inhibition, all other assay components but no enzyme=100% inhibition).

Structure (SMILES)	IC50 [µM]
O=CO.c1ccc(-n2nc(NCc3nc4ccccc4[nH]3)c3ncc(C4CC4)nc32)cc1 [Example 13, formic acid—N-[(1H-benzimidazol-2-yl)methyl]-6-cyclopropyl-1-phenyl-1H-pyrazolo[3,4-b]pyrazin-3-amine (1/1)]	> 20
CC(C)(O)C1CC(n2nc(NCc3nc4ccccc4[nH]3)c3ncc(C4CC4)nc32)C1 (mixture of isomers) [Example 48, 2-[cis/trans-3-(3-{[(1H-benzimidazol-2-yl)methyl]amino}-6-cyclopropyl-1H-pyrazolo[3,4-b]pyrazin-1-yl)cyclobutyl]propan-2-ol]	> 20
c1ccc2[nH]c(CNc3nn(C4CCNCC4)c4nc(C5CC5)cnc34)nc2c1 [Example 12, N-[(1H-benzimidazol-2-yl)methyl]-6-cyclopropyl-1-(piperidin-4-yl)-1H-pyrazolo[3,4-b]pyrazin-3-amine]	> 20
OCCn1nc(NCc2nc3ccccc3[nH]2)c2ncc(C3CC3)nc21 [Example 66, 2-(3-{[(1H-benzimidazol-2-yl)methyl]amino}-6-cyclopropyl-1H-pyrazolo[3,4-b]pyrazin-1-yl)ethan-1-ol]	> 20
CC(C)(O)CCn1nc(NCc2nc3ccccc3[nH]2)c2ncc(C3CC3)nc21 [Example 76, 4-(3-{[(1H-benzimidazol-2-yl)methyl]amino}-6-cyclopropyl-1H-pyrazolo[3,4-b]pyrazin-1-yl)-2-methylbutan-2-ol]	> 20
c1ccc2[nH]c(CNc3nn(C4CCC4)c4nc(C5CC5)cnc34)nc2c1 [Example 49, N-[(1H-benzimidazol-2-yl)methyl]-1-cyclobutyl-6-cyclopropyl-1H-pyrazolo[3,4-b]pyrazin-3-amine]	> 20
CN1CCC(n2nc(NCc3nc4cc(F)c(F)cc4[nH]3)c3ncc(C4CC4)nc32)CC1 [Example 30, 6-cyclopropyl-N-[(5,6-difluoro-1H-benzimidazol-2-yl)methyl]-1-(1-methylpiperidin-4-yl)-1H-pyrazolo[3,4-b]pyrazin-3-amine]	> 20
CC(C)(C)OC(=O)N1CCC(n2nc(NCc3nc4ccccc4[nH]3)c3ncc(C4CC4)nc32)CC1 [Example 11, tert-butyl 4-(3-{[(1H-benzimidazol-2-yl)methyl]amino}-6-cyclopropyl-1H-pyrazolo[3,4-b]pyrazin-1-yl)piperidine-1-carboxylate]	> 20
Fc1ccc2[nH]c(CNc3nn(C4CCOCC4)c4nc(C5CC5)cnc34)nc2c1F [Example 32, 6-cyclopropyl-N-[(4,5-difluoro-1H-benzimidazol-2-yl)methyl]-1-(oxan-4-yl)-1H-pyrazolo[3,4-b]pyrazin-3-amine]	> 20
CC(CCN(C)C)n1nc(NCc2nc3ccccc3[nH]2)c2ncc(C3CC3)nc21 (single isomer, unassigned) [Example 64, (−) or(+)-N-[(1H-benzimidazol-2-yl)methyl]-6-cyclopropyl-1-[4-(dimethylamino)butan-2-yl]-1H-pyrazolo[3,4-b]pyrazin-3-amine]	> 20
OCC1(Cn2nc(NCc3nc4ccccc4[nH]3)c3ncc(C4CC4)nc32)CCC1 [Example 74, {1-[(3-{[(1H-benzimidazol-2-yl)methyl]amino}-6-cyclopropyl-1H-pyrazolo[3,4-b]pyrazin-1-yl)methyl]cyclobutyl}methanol]	> 20
c1ccc2[nH]c(CNc3nn(CC4CCC4)c4nc(C5CC5)cnc34)nc2c1 [Example 75, N-[(1H-benzimidazol-2-yl)methyl]-1-(cyclobutylmethyl)-6-cyclopropyl-1H-pyrazolo[3,4-b]pyrazin-3-amine]	> 20
Cn1nc(NCc2nc3ccccc3[nH]2)c2ncc(C3CC3)nc21 [Example 15, N-[(1H-benzimidazol-2-yl)methyl]-6-cyclopropyl-1-methyl-1H-pyrazolo[3,4-b]pyrazin-3-amine]	> 20
COc1cccc2[nH]c(CNc3nn(C4CCN(C)CC4)c4nc(C5CC5)cnc34)nc12 [Example 2, 6-cyclopropyl-N-[(4-methoxy-1H-benzimidazol-2-yl)methyl]-1-(1-methylpiperidin-4-yl)-1H-pyrazolo[3,4-b]pyrazin-3-amine]	> 20
OC1(Cn2nc(NCc3nc4ccccc4[nH]3)c3ncc(C4CC4)nc32)CCC1 [Example 72, 1-[(3-{[(1H-benzimidazol-2-yl)methyl]amino}-6-cyclopropyl-1H-pyrazolo[3,4-b]pyrazin-1-yl)methyl]cyclobutan-1-ol]	> 20
Cc1cnc2c(NCc3nc4ccccc4[nH]3)nn(C3CCN(C)CC3)c2n1 [Example 77, N-[(1H-benzimidazol-2-yl)methyl]-6-methyl-1-(1-methylpiperidin-4-yl)-1H-pyrazolo[3,4-b]pyrazin-3-amine]	> 20
Cc1cccc2[nH]c(CNc3nn(C4CCN(C)CC4)c4nc(C5CC5)cnc34)nc12 [Example 8, 6-cyclopropyl-N-[(4-methyl-1H-benzimidazol-2-yl)methyl]-1-(1-methylpiperidin-4-yl)-1H-pyrazolo[3,4-b]pyrazin-3-amine]	> 20
CN1CCC(n2nc(NCc3nc4c(F)cccc4[nH]3)c3ncc(C4CC4)nc32)CC1 [Example 3, 6-cyclopropyl-N-[(4-fluoro-1H-benzimidazol-2-yl)methyl]-1-(1-methylpiperidin-4-yl)-1H-pyrazolo[3,4-b]pyrazin-3-amine]	> 20
Cc1c(Cl)ccc2[nH]c(CNc3nn(C4CCN(C)CC4)c4nc(C5CC5)cnc34)nc12 [Example 21, N-[(5-chloro-4-methyl-1H-benzimidazol-2-yl)methyl]-6-cyclopropyl-1-(1-methylpiperidin-4-yl)-1H-pyrazolo[3,4-b]pyrazin-3-amine]	> 20
CC(C)(O)Cn1nc(NCc2nc3ccccc3[nH]2)c2ncc(C3CC3)nc21 [Example 69, 1-(3-{[(1H-benzimidazol-2-yl)methyl]amino}-6-cyclopropyl-1H-pyrazolo[3,4-b]pyrazin-1-yl)-2-methylpropan-2-ol]	> 20
CN1CCC(n2nc(NCc3nc4cc(Cl)c(Cl)cc4[nH]3)c3ncc(C4CC4)nc32)CC1 [Example 19, 6-cyclopropyl-N-[(5,6-dichloro-1H-benzimidazol-2-yl)methyl]-1-(1-methylpiperidin-4-yl)-1H-pyrazolo[3,4-b]pyrazin-3-amine]	> 20
COc1cccc2[nH]c(CNc3nn(C4CCOCC4)c4nc(C5CC5)cnc34)nc12 [Example 24, 6-cyclopropyl-N-[(4-methoxy-1H-benzimidazol-2-yl)methyl]-1-(oxan-4-yl)-1H-pyrazolo[3,4-b]pyrazin-3-amine]	17.9
COCCC(C)n1nc(NCc2nc3ccccc3[nH]2)c2ncc(C3CC3)nc21 (single isomer, unassigned; (+)) [Example 59, (+)-N-[(1H-benzimidazol-2-yl)methyl]-6-cyclopropyl-1-[4-methoxybutan-2-yl]-1H-pyrazolo[3,4-b]pyrazin-3-amine]	> 20
CC(CCN(C)C)n1nc(NCc2nc3ccccc3[nH]2)c2ncc(C3CC3)nc21 (racemic) [Example 62, (±)-N-[(1H-benzimidazol-2-yl)methyl]-6-cyclopropyl-1-[4-(dimethylamino)butan-2-yl]-1H-pyrazolo[3,4-b]pyrazin-3-amine]	> 20
c1ccc2[nH]c(CNc3nn(C4CCCC4)c4nc(C5CC5)cnc34)nc2c1 [Example 39, N-[(1H-benzimidazol-2-yl)methyl]-1-cyclopentyl-6-cyclopropyl-1H-pyrazolo[3,4-b]pyrazin-3-amine]	> 20
COC(C)(C)CCn1nc(NCc2nc3ccccc3[nH]2)c2ncc(C3CC3)nc21 [Example 67, N-[(1H-benzimidazol-2-yl)methyl]-6-cyclopropyl-1-(3-methoxy-3-methylbutyl)-1H-pyrazolo[3,4-b]pyrazin-3-amine]	> 20
